Where two headings read alike, the source gives them in different places. A value given as a limit tells only on which side of the number the result lay.

Type in all cases: cell-based
Assay [1] deals with BT-474 cells (HER2 overexpressing cell line). Put plainly: BT-474 cell proliferation inhibitory activity (CellTiter-Glo, 120 hours). The essentials:
(§1)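 Luminescent viability read-out, growth % vs control → GI50, n=3. Seeding: SK-BR-3/BT-474 5000 cells, 48 h pre-plating; N-87 5000, 24 h; HaCaT 3000, 24 h. Dose ranges: 0.2 nM–10 μM (SK-BR-3, BT-474; 3-fold), […]–5 μM (N-87; 5-fold), 0.8 nM–45 μM (HaCaT; 3-fold).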

In assay [2] the test system is N-87 cells (HER2 overexpressing cell line). Briefly: N-87 cell proliferation inhibitory activity (CellTiter-Glo, 72 hours). The procedure:
To evaluate the cell proliferation inhibitory activity of the compound according to the present invention on HER2 and EGFR kinases, the following method was performed using HER2 overexpressing cell lines (SK-BR-3, BT-474, and N-87) and EGFR expressing cell line (HaCaT).
McCOY'S 5A supplemented with 10% FBS was used for SK-BR-3 cells, RPMI-1640 medium supplemented with 20% FBS was used for BT-474 cancer cells, and RPMI-1640 medium supplemented with 10% FBS was used for N-87 cancer cells. DMEM supplemented with 10% FBS was used for HaCaT cells.
For SK-BR-3 cells, 5000 cells were aliquoted into each well of a white clear bottom 96 well plate (Corning) 48 hours before treatment with the compounds of Examples. For BT-474 cells, 5000 cells were aliquoted into each well of a white clear bottom 96 well plate (Corning) 48 hours before treatment with the compounds of Examples. For N-87 cells, 5000 cells were aliquoted into each well of a white clear bottom 96 well plate (Corning) 24 hours before treatment with the compounds of Examples. For HaCaT cells, 3000 cells were aliquoted into each well of a white clear bottom 96 well plate (Corning) 24 hours before treatment with the compounds of Examples. For SK-BR-3 cells and BT-474 cells, the compounds of Examples were diluted in dimethyl sulfoxide (three-fold dilution, a total of 11 concentrations) and injected each in an amount of 1 μl to a final concentration of 0.2 nM to 10 μM. For N-87 cells, the compounds of Examples were diluted in dimethyl sulfoxide (five-fold dilution, a total of 11 concentrations) and injected each in an amount of 0.5 μl to a final concentration of […] to 5 μM. For HaCaT cells, the compounds of Examples were diluted in dimethyl sulfoxide (three-fold dilution, a total of 11 concentrations) and injected each in an amount of 0.5 μl to a final concentration of 0.8 nM to 45 μM. For the measurement of living cells, the cells were stored at room temperature for 10 minutes using CellTiter-Glo cell viability reagent (Promega) after a certain period of time (SK-BR-3: 120 hours, BT-474: 120 hours, N-87: 72 hours, and HaCaT: 72 hours) post treatment with the compounds of Examples, and the luminescence intensity thereof was measured using a reader (SynergyNeo, Biotek). Each test was repeated three times.
The result values were calculated as a cell growth rate (%) compared to those of the control group. A graph was created using the GraphPad Prism version 5.0 program, and GI50 values were calculated.
A general note: Cellular ATP, detected with luciferase, serves as a proxy for viable cell number.

In assay [3] the test system is HaCaT cells (EGFR expressing cell line). Briefly: HaCaT cell proliferation inhibitory activity (CellTiter-Glo, 72 hours). In short, it runs like this:
as §1

Assay [4] deals with SK-BR-3 cells (HER2 overexpressing cell line). Put plainly: SK-BR-3 cell proliferation inhibitory activity (CellTiter-Glo, 120 hours). As to conditions: Homo sapiens. In short, it runs like this:
as §1

For orientation: GI50 means the concentration at which growth is held to half of that of the control. For `C=CC(=O)N1CCC(Oc2cc3c(Nc4cc(-c5ccc(F)c(NC(C)=O)c5F)ccc4OC)ncnc3cc2OC)CC1` [Example 1, N-(3′-((6-((1-acryloylpiperidin-4-yl)oxy)-7-methoxyquinazolin-4-yl)amino)-2,4-difluoro-4′-methoxy-[1,1′-biphenyl]-3-yl)acetamide], the values for the GI50 in assay [1] (Homo sapiens), in assay [2] and in assay [3] (Homo sapiens) were ≤ 150 nM, ≤ 150 nM and > 1000 nM, respectively.
On to `C=CC(=O)N1CCC(Oc2cc3c(Nc4cc(-c5ccco5)ccc4OC)ncnc3cc2OC)[C@H](C)C1` (stereo in doubt) [Example 169, 1-((3R,4S)-4-((4-((5-(furan-2-yl)-2-methoxyphenyl)amino)-7-methoxy-quinazolin-6-yl)oxy)-3-methylpiperidin-1-yl)prop-2-en-1-one], for which the GI50 in assay [1] (Homo sapiens), in assay [2] and in assay [3] (Homo sapiens) was ≤ 150 nM in each case.
As for `C=CC(=O)N1CCC(Nc2cc3c(Nc4cc(-c5ccc(F)cc5F)ccc4OC)ncnc3cc2OCC)CC1` [Example 301, 1-(4-((4-((2′,4′-difluoro-4-methoxy-[1,1′-biphenyl]-3-yl)amino)-7-ethoxyquinazolin-6-yl)amino)piperidin-1-yl)prop-2-en-1-one], the concentration for 50% growth inhibition (GI50) in assay [1] (Homo sapiens), in assay [2] and in assay [3] (Homo sapiens) was ≤ 150 nM each time.
Regarding `C=CC(=O)N1CCC(Oc2cc3c(Nc4cc(-c5ccc(F)cc5Cl)ccc4OC)ncnc3cc2OC)CC1` [Example 191, 1-(4-((4-((2′-chloro-4′-fluoro-4-methoxy-[1,1′-biphenyl]-3-yl)amino)-7-methoxy-quinazolin-6-yl)oxy)piperidin-1-yl)prop-2-en-1-one], the 50% growth inhibitory concentration (GI50) in assay [1] (Homo sapiens), in assay [2] and in assay [3] (Homo sapiens) was ≤ 150 nM in each case.
As for `C=CC(=O)N1CCC(Oc2cc3c(Nc4cc(-c5ccc(F)cc5F)ccc4OC)ncnc3cc2O[C@@H]2CCOC2)CC1` [Example 281, (R)-1-(4-((4-((2′,4′-difluoro-4-methoxy-[1,1′-biphenyl]-3-yl)amino)-7-((tetrahydrofuran-3-yl)oxy)quinazolin-6-yl)oxy)piperidin-1-yl)prop-2-en-1-one], the GI50 in assay [2], in assay [3] (Homo sapiens) and in assay [4] was ≤ 150 nM each time.
With `C=CC(=O)N1CC2(CC(Oc3cc4c(Nc5cc(-c6ccco6)ccc5OC)ncnc4cc3OC)C2)C1` [Example 218, 1-(6-((4-((5-(furan-2-yl)-2-methoxyphenyl)amino)-7-methoxy-quinazolin-6-yl)oxy)-2-azaspiro[3.3]heptan-2-yl)prop-2-en-1-one], the GI50 is > 1000 nM in assay [1] (Homo sapiens) and 150 to 1000 nM in assay [3] (Homo sapiens).
For `COc1cc2ncnc(Nc3cc(-c4ccc(F)cc4F)c(F)cc3OC)c2cc1NC(=O)/C=C/[C@H]1CCCN1C` [Example 308, (R,E)-N-(7-methoxy-4-((2′,4′,6-trifluoro-4-methoxy-[1,1′-biphenyl]-3-yl)amino)quinazolin-6-yl)-3-(1-methylpyrrolidin-2-yl)acrylamide], the GI50 in assay [1] (Homo sapiens) and in assay [3] (Homo sapiens) was ≤ 150 nM in each case.
Regarding `C=CC(=O)N1CCC(Oc2cc3c(Nc4cc(-c5ccc(F)c(OC)c5F)ccc4OC)ncnc3cc2OC)CC1` [Example 210, 1-(4-((4-((2′,4′-difluoro-3′,4-dimethoxy-[1,1′-biphenyl]-3-yl)amino)-7-methoxy-quinazolin-6-yl)oxy)piperidin-1-yl)prop-2-en-1-one], the GI50 was ≤ 150 nM in assay [1] (Homo sapiens) and 150 to 1000 nM in assay [3] (Homo sapiens).
On to `C=CC(=O)N1CC2(CCC(Oc3cc4c(Nc5cc(-c6ccco6)ccc5OC)ncnc4cc3OC)C2)C1` (stereo not drawn) [Example 221, 1-(6-((4-((5-(furan-2-yl)-2-methoxyphenyl)amino)-7-methoxy-quinazolin-6-yl)oxy)-2-azaspiro[3.4]octan-2-yl)prop-2-en-1-one], for which the GI50 is > 1000 nM in assay [1] (Homo sapiens) and 150 to 1000 nM in assay [3] (Homo sapiens).
Take `COc1cc2ncnc(Nc3cc(-c4ccco4)ccc3OC)c2cc1NC(=O)/C=C/CN1CCOCC1` [Example 315, (E)-N-(4-((5-(furan-2-yl)-2-methoxyphenyl)amino)-7-methoxyquinazolin-6-yl)-4-morpholinobut-2-enamide]: the GI50 in assay [1] (Homo sapiens) and in assay [3] (Homo sapiens) was ≤ 150 nM throughout.
As for `C=CC(=O)N1CCC(Oc2cc3c(Nc4cc(-c5ccc(F)c(C)c5F)ccc4OC)ncnc3cc2OC)CC1` [Example 207, 1-(4-((4-((2′,4′-difluoro-4-methoxy-3′-methyl-[1,1′-biphenyl]-3-yl)amino)-7-methoxy-quinazolin-6-yl)oxy)piperidin-1-yl)prop-2-en-1-one], the 50% growth inhibitory concentration (GI50) in assay [1] (Homo sapiens) is ≤ 150 nM; in assay [3] (Homo sapiens), 150 to 1000 nM.
Consider `C=CC(=O)N1CCC(F)(F)C(Oc2cccc3ncnc(Nc4cc(-c5ccc(F)cc5F)ccc4OC)c23)C1` (stereo not drawn) [Example 200, 1-(3-((4-((2′,4′-difluoro-4-methoxy-[1,1′-biphenyl]-3-yl)amino)quinazolin-5-yl)oxy)-4,4-difluoro-piperidin-1-yl)prop-2-en-1-one], for which the 50% growth inhibitory concentration (GI50) in assay [1] (Homo sapiens) and in assay [3] (Homo sapiens) was ≤ 150 nM in each case.
Take `C=CC(=O)N1CCC(Oc2cc3c(Nc4cc(-c5ccc(F)c(N)c5)ccc4OC)ncnc3cc2OC)CC1` [Example 146, 1-(4-((4-((3′-amino-4′-fluoro-4-methoxy-[1,1′-biphenyl]-3-yl)amino)-7-methoxy-quinazolin-6-yl)oxy)piperidin-1-yl)prop-2-en-1-one]: the figures for the 50% growth inhibitory concentration (GI50) in assay [2], in assay [3] (Homo sapiens) and in assay [4] were ≤ 150 nM, > 1000 nM and ≤ 150 nM, respectively.
With `C=CC(=O)N1CC(Oc2cc3c(Nc4cc(-c5cccc(N(C)C)c5)ccc4OC)ncnc3cc2OC)C1` [Example 199, 1-(3-((4-((3′-(dimethylamino)-4-methoxy-[1,1′-biphenyl]-3-yl)amino)-7-methoxy-quinazolin-6-yl)oxy)azetidin-1-yl)prop-2-en-1-one], the figures for the concentration for 50% growth inhibition (GI50) in assay [1] (Homo sapiens) and in assay [3] (Homo sapiens) were ≤ 150 nM and 150 to 1000 nM, respectively.
For `COc1cc2ncnc(Nc3cc(-c4ccc(F)cc4F)ccc3OC)c2cc1NC(=O)/C=C/CN1CCOCC1` [Example 316, (E)-N-(4-((2′,4′-difluoro-4-methoxy-[1,1′-biphenyl]-3-yl)amino)-7-methoxyquinazolin-6-yl)-4-morpholinobut-2-enamide] the same measures were ≤ 150 nM and ≤ 150 nM.
Consider `C=CC(=O)N1CC[C@H](Oc2cc3c(Nc4cc(-c5ccc(F)cc5F)ccc4OC)ncnc3cc2OC)[C@@H](F)C1` [Example 152, 1-((3S,4S)-4-((4-((2′,4′-difluoro-4-methoxy-[1,1′-biphenyl]-3-yl)amino)-7-methoxy-quinazolin-6-yl)oxy)3-fluoropiperidin-1-yl)prop-2-en-1-one], for which the GI50 in assay [1] (Homo sapiens) and in assay [3] (Homo sapiens) was 150 to 1000 nM throughout.
In the case of `COc1cc2ncnc(Nc3cc(-c4ccco4)ccc3OC)c2cc1NC(=O)/C(F)=C\[C@@H]1CCCN1C` [Example 309, (S,E)-2-fluoro-N-(4-((5-(furan-2-yl)-2-methoxyphenyl)amino)-7-methoxyquinazolin-6-yl)-3-(1-methylpyrrolidin-2-yl)acrylamide], the GI50 in assay [1] (Homo sapiens) and in assay [3] (Homo sapiens) was ≤ 150 nM each time.
In the case of `C=CC(=O)N1CCC(F)(F)C(Oc2cc(OC)cc3ncnc(Nc4cc(-c5ccc(F)cc5F)ccc4OC)c23)C1` (stereo not drawn) [Example 100, 1-(3-((4-((2′,4′-difluoro-4-methoxy-[1,1′-biphenyl]-3-yl)amino)-7-methoxy-quinazolin-5-yl)oxy)-4,4-difluoro-piperidin-1-yl)prop-2-en-1-one], the GI50 in assay [1] and in assay [3] was ≤ 150 nM in each case.

These data come from US20240246940A1, “HETEROARYL DERIVATIVE COMPOUND AND USE THEREOF” (VORONOI INC., priority 2021, published 2024).
